In US10987382B2, “Solanum dubium seeds and honey (extracted from bee hives in Acacia tree populated area) combination for treatment of asthma and bronchial asthma” (priority 2015, dated 2021):

Tested on: Carrageenan induced paw oedema in Wister Rats
Assay: Carrageenan induced paw oedema (anti-inflammatory activity)
Format: in vivo, rat
Conditions: for % reduction in edema volume: 40 mg/kg i.p.
Method: And anti-inflammatory study of aqueous crude extract of S. dubuim seeds, honey and S. dubuim seeds and honey (combination) on Wister Rats (42 rats), done to evaluate the anti inflammatory effects in animals using the method of Carrageenan induced paw oedema. (Nayak and Patel, 2010).
The first group serve as control and receive normal saline (1 ml/kg, orally), the second group served as standard and were administrated standard drug diclofenac sodium (100 mg/kg i.p.). The remaining groups were treated with, the third group received honey (2 ml/kg, orally), the fourth group are treated with the S. dubium seeds (2 ml/kg orally), the fifth group are treated with combination (2 ml/kg orally), the sixth group are treated with combination (4 ml/kg orally) and group seventh treated with standard drug hydrocortisone (40 mg/kg i.p.). A mark was made on both the hind paws just below the tibio-tarsal junction. After 30 min of the above treatment an inflammatory oedema was induced in the left hind paw by inject 0.1 ml solution of Carrageenan, in the planter tissue of all the animals. The paw volume was measured at first hour and followed every hour till the fifths hour after administration of carrageenan of each group. The difference between the initial and subsequence reading gave the actual edema volume. […] 100 mg/kg.
Finally the results of the anti-inflammatory activity of the fractions of methanolic extract (144) Wister Rats. […] Also the alcoholic extract of all fractions decreased rat paw edema at the end of 5th hour. The paw volume was measured initially at 0, 1, 2, 3, 4 and 5 h after Carrageenan injection using digital paw edema meter. Percent inhibition of inflammation was calculated using the formula: % Inhibition=100(1−vt/vc). Where (vc) represents edema volume in control and (vt) edema volume in group treated with sample.

SMILES: O=C(O)Cc1ccccc1Nc1c(Cl)cccc1Cl [diclofenac sodium]
- inhibition at 100 mg/kg (Rattus norvegicus, ip, 100 mg/kg i.p., after 4 hour, read-out: % inhibition of paw edema): 74.3%

SMILES: C[C@]12CCC(=O)C=C1CC[C@@H]1[C@@H]2[C@@H](O)C[C@@]2(C)[C@H]1CC[C@]2(O)C(=O)CO [hydrocortisone]
- % reduction in edema volume (after 4 hour): 70.39%
- % reduction in edema volume (after 5 hour): 76.35%
